Test results published in PMC8878468, “Image-Based Annotation of Chemogenomic Libraries for Phenotypic Screening” (Molecules, 2022).
Counter-ions that a name gives are not always drawn.

Key:
U2OS cells = experiment: Multiplex high-content protocol (nuclei gating, tubulin, mitochondrial mass, membrane permeability); format: cell-based, human; details: for mitochondrial mass increase detected / marked for tubulin effects while crossing no other phenotypic threshold: threshold > 50%; for viability at 1 µM: Homo sapiens, read-out: healthy nuclei; for tubulin effect / increase in mitochondrial mass in comparison to DMSO: healthy nuclei only
Description: Using the CQ1 high-content confocal microscope (Yokogawa), cellular shape and fluorescence was measured before and 12 h as well as 24 h after compound treatment. All compounds were diluted in DMSO to a concentration of 10 mM.
The rather large spacing distance was used to create a robust readout, compensating potential plate variations and enabling automated screening without the use of autofocus. The overlap of the fluorescence emission spectra of the dyes was neglectable for all but the MitoTracker Red and Annexin V Alexa Fluor 680 (Supplementary Figure S9).
All images were analyzed using the CellPathfinder software (Yokogawa). Segmentation of cells was performed as described earlier. First, the cells are classified in Hoechst High Intensity Objects or Normal Intensity Objects (Supplementary Table S7). All normal gated cells are further classified in healthy, fragmented or pyknosed nuclei (Supplementary Table S7). The pyknosed cells are gated in mitotic or apoptotic cells using seven features for the cell body and five features for the cell nuclei according to their Annexin V staining intensity (Supplementary Table S7). All cells that were classified as including a healthy nucleus are further gated into three phenotypic classes. […] Growth rate was calculated against non-treated cells and cells treated with DMSO 0.1% [61].

HCT116-FUCCI cells [1] = experiment: FUCCI cell cycle assay with nuclear gating; format: cell-based, human; details: 10 µM, up to 70 h
Description: For generation of a stable cell line, including the florescent ubiquitination-base cell cycle indicator FUCCI, the plasmid-based transposon system Sleeping Beauty was used. Vector (pSBbi_Fucci) and the Transposase SB100X have been described previously. […] Two days after transfection, cells were selected over 10 days using puromycin (1 µg/mL) and cultivated afterwards for two more weeks in McCoys 5A plus L-Glutamine (Gibco) supplemented by 10% FBS (Gibco) and Penicillin/Streptomycin (Gibco).
Fluorescence and cellular shape were measured before and after compound treatment for 72 h every 12 h using the CQ1 high-content confocal microscope (Yokogawa). […]
Image analysis was performed using the CellPathfinder software (Yokogawa). Segmentation of cells was performed as described earlier. First, the cells are classified in Hoechst High Intensity Objects or Normal Intensity Objects (Supplementary Table S7). All normal gated cells are further classified in healthy, fragmented or pyknosed nuclei (Supplementary Table S7). […] Total cell count was normalized against total cell count of cells treated with 0.1% DMSO.

HCT116-FUCCI cells [2] = test system: HCT116-FUCCI cells; design: method as in per compound as in column reference of Table S3; details: literature annotation in Table S3; ref per compound as in Table S3; cited from earlier work

Cc1cc(C)cc(-c2cnc3cc(Cl)c(-c4cccc(O)c4)cc3c2OCCCN)c1 [TC-G 1003]
mitochondrial mass increase detected (U2OS cells; U2OS, 1 µM): mitochondrial mass increase

CC[C@@H]1C(=O)N(C)c2cnc(Nc3ccc(C(=O)N[C@H]4CC[C@H](N5CCN(CC6CC6)CC5)CC4)cc3OC)nc2N1C(C)C [volasertib]
viability at 1 µM (U2OS cells; U2OS, 1 µM, 24 h): ≤ 40%

CN1CCCC(n2nc(Cc3ccc(Cl)cc3)c3ccccc3c2=O)CC1 (centres unmarked) [azelastine]
mitochondrial mass increase detected (U2OS cells; U2OS, 1 µM): mitochondrial mass increase

CS(=O)(=O)N1CCCC(NC(=O)[C@H](CCC2CCCCC2)NC(=O)c2ccc(CNC(=O)c3cnc4ccccn34)cc2)C1 (some centres unmarked) [SR-302]
tubulin effect (U2OS cells; U2OS, 10 µM, 24 h): more than 90%

CN1CCN(Cc2cc(NC(=O)c3ccc4c(c3)CN(c3ccccc3)CC4)cc(C(F)(F)F)c2)CC1 [DDR-TRK-1N]
healthy nuclei (U2OS cells; U2OS, 1 µM, 24 h): ≤ 40%

CC[C@@]1(O)C(=O)OCc2c1cc1n(c2=O)Cc2cc3c(CN(C)C)c(O)ccc3nc2-1 [topotecan]
change of FUCCI nuclei population in comparison to DMSO (HCT116-FUCCI cells [1]): increase in green nuclei
mitochondrial mass increase detected (U2OS cells; U2OS, 1 µM): mitochondrial mass increase
healthy nuclei (healthy cells) (U2OS cells; U2OS, 10 µM, 24 h): less than 50%
Hoechst High Intensity Objects (U2OS cells; U2OS, 10 µM, after 24 h, in one of two biological replicates): > 30%

CC(C)Oc1ccccc1C(=O)Nc1ccccc1C(=O)Nc1cccc(S(=O)(=O)C(F)(F)F)c1 [ML-290]
mitochondrial mass increase detected (U2OS cells; U2OS, 1 µM): mitochondrial mass increase

COc1ccc(C[C@H](N)C(=O)N[C@H]2[C@@H](O)[C@H](n3cnc4c(N(C)C)ncnc43)O[C@@H]2CO)cc1 [puromycin]
mitochondrial mass, first analysis gating all cells independently of viability (U2OS cells; 10 µM): increased mitochondrial mass
tubulin effect, first analysis gating all cells independently of viability (U2OS cells; 10 µM): tubulin effects
healthy nuclei (healthy cells) (U2OS cells; U2OS, 10 µM, 24 h): less than 50%
known cell cycle effect (HCT116-FUCCI cells [2]): effect on cell cycle

Cc1[nH]c(/C=C2\C(=O)Nc3ccc(S(=O)(=O)N(C)c4cccc(Cl)c4)cc32)c(C)c1C(=O)N1CCN(C)CC1 [SU11274]
marked for tubulin effects while crossing no other phenotypic threshold (U2OS cells; U2OS, 1 µM): marked to have tubulin effects

c1ccc2oc(-c3csc(C4CCN(Cc5nc6ncccc6[nH]5)CC4)n3)cc2c1 [BAY-179]
healthy nuclei (healthy cells) (U2OS cells; U2OS, 10 µM, 24 h): over 80%
increase in mitochondrial mass in comparison to DMSO (U2OS cells; U2OS, 10 µM, 24 h): over 60%

Cc1ccc(NC(=O)Nc2cc(C(F)(F)F)ccc2F)cc1Nc1ccc2c(c1)NC(=O)/C2=C\c1ccc[nH]1 [GNF-5837]
viability at 1 µM (U2OS cells; U2OS, 1 µM, 24 h): ≤ 40%
decrease of healthy nuclei count (U2OS cells; U2OS, 1 µM): more than 60%

CCN1CCN(c2ccc(Nc3cc(N(C)C(=O)Nc4c(Cl)c(OC)cc(OC)c4Cl)ncn3)cc2)CC1 [infigratinib]
viability at 1 µM (U2OS cells; U2OS, 1 µM, 24 h): ≤ 40%

Cc1c(P(=S)(c2ccccc2)c2ccccc2)n2ccccc2[n+]1C/C=C/c1ccccc1 [ML154]
viability at 1 µM (U2OS cells; U2OS, 1 µM, 24 h): ≤ 40%

Nc1ncnc2c1c(-c1cccc(OCc3ccccc3)c1)cn2[C@H]1C[C@@H](CN2CCC2)C1 [NVP-AEW541]
mitochondrial mass increase detected (U2OS cells; U2OS, 1 µM): mitochondrial mass increase

CCOC(=O)c1c(C)[nH]c2ccc3c(c12)CN1CCc2cc(OC)ccc2C1O3 (centres unmarked) [PD 102807]
mitochondrial mass increase detected (U2OS cells; U2OS, 1 µM): mitochondrial mass increase

CCC1=C[C@@H]2CN(C1)Cc1c([nH]c3ccccc13)[C@@](C(=O)OC)(c1cc3c(cc1OC)N(C)[C@H]1[C@@](O)(C(=O)OC)[C@H](OC(C)=O)[C@]4(CC)C=CCN5CC[C@]31[C@@H]54)C2 [vinorelbine tartrate]
tubulin effect (U2OS cells; U2OS, 10 µM, 24 h): increased tubulin effects

COc1cc2c(Nc3ccc(NC(=O)c4ccccc4)cc3)ncnc2cc1OCCCN1CCOCC1 [ZM447439]
marked for tubulin effects while crossing no other phenotypic threshold (U2OS cells; U2OS, 1 µM): marked to have tubulin effects

Nc1c(C(=O)NCc2ccc(C(=O)NCCCC3CCCCC3)cc2)cnn1-c1ccccc1 [SR-318]
marked for tubulin effects while crossing no other phenotypic threshold (U2OS cells; U2OS, 1 µM): marked to have tubulin effects
healthy nuclei (healthy cells) (U2OS cells; U2OS, 10 µM, 24 h): over 80%
increase in mitochondrial mass in comparison to DMSO (U2OS cells; U2OS, 10 µM, 24 h): over 60%
tubulin effect (U2OS cells; U2OS, 10 µM, 24 h): more than 90%

Nc1ccc(C(=O)Nc2cccc(-c3nc(N4CCOCC4)c4oc5ncccc5c4n3)c2)cn1 [YM-201636]
marked for tubulin effects while crossing no other phenotypic threshold (U2OS cells; U2OS, 1 µM): marked to have tubulin effects

COc1ncc(-c2ccc3nccc(-c4ccnnc4)c3c2)cc1NS(=O)(=O)c1ccc(F)cc1F [omipalisib]
viability at 1 µM (U2OS cells; U2OS, 1 µM, 24 h): ≤ 40%
decrease of healthy nuclei count (U2OS cells; U2OS, 1 µM): more than 60%
